# Source: US10947188B2, “Small molecule ferroptosis inducers” (THE TRUSTEES OF COLUMBIA UNIVERSITY IN THE CITY OF NEW YORK, priority 2016, dated 2021)
# Experiments:
# HT-1080 = test: Modulatory profiling: Alamar Blue viability, lethal compound cotreated with death modulator (EC50, AUC); type: cell-based; parameters: AUC, modulator HT.3MA / AUC, modulator HT.ALLN / AUC HT.ATA / AUC HT.ActD / AUC HT.BHA / AUC HT.BHT / AUC HT.BocD / AUC HT.CHX / AUC HT.Co2+ / AUC HT.DPQ / AUC HT.EGTA / AUC HT.Lmim / AUC HT.NAD+ / AUC HT.Nec-1 / AUC HT.SP600125 / AUC HT.TLCK / AUC HT.U0126: unit not given beside the values; settings: for AUC HT.ATA: HT-1080, modulator ATA; for AUC HT.ActD: HT-1080, modulator ActD; for AUC HT.BHA: HT-1080, modulator BHA; for AUC HT.BHT: HT-1080, modulator BHT; for AUC HT.BocD: HT-1080, modulator BocD; for AUC HT.CHX: HT-1080, modulator CHX; for AUC HT.Co2+: HT-1080, modulator Co2+; for AUC HT.CspA: HT-1080, modulator CspA; for AUC HT.DPQ: HT-1080, modulator DPQ; for AUC HT.EGTA: HT-1080, modulator EGTA; for AUC HT.Gd3+: HT-1080, modulator Gd3+; for AUC HT.LNAME: HT-1080, modulator LNAME; for AUC HT.Lmim: HT-1080, modulator Lmim; for AUC HT.NAD+: HT-1080, modulator NAD+; for AUC HT.NMMA: HT-1080, modulator NMMA; for HT.atoc (AUC) / HT.bCarotene (AUC) / HT.deferox (AUC) / HT.digoxin (AUC) / HT.trolox (AUC) / HT.zVAD (AUC): HT-1080; for HT.atoc (AUC): modulator atoc; for HT.bCarotene (AUC): modulator bCarotene; for HT.deferox (AUC): modulator deferox; for HT.digoxin (AUC): modulator digoxin; for HT.trolox (AUC): modulator trolox; for HT.zVAD (AUC): modulator zVAD; on AUC HT.BHA: reference of the scale not given here; on AUC HT.EGTA: reference of the scale not given here
# BJeLR = test: as above; type: cell-based, human; parameters: AUC, modulator BJ.Gd3+ / AUC, modulator BJ.LNAME / AUC, modulator BJ.Lmin / AUC, modulator BJ.3MA / AUC, modulator BJ.ALLN / AUC, modulator BJ.Boc D / AUC, modulator BJ.CHX / AUC, modulator BJ.Co2+ / AUC, modulator BJ.Nec-1 / AUC, modulator BJ.Pepstatin / AUC, modulator BJ.TLCK / AUC, modulator BJ.atoc / AUC, modulator BJ.trolox / AUC, modulator BJ.zVAD: unit not given beside the values; settings: BJeLR cells, modulatory profile value (AUC); for AUC, modulator BJ.3MA: lethal compound cotreated with modulator 3MA; for AUC, modulator BJ.ALLN: lethal compound cotreated with modulator ALLN; for AUC, modulator BJ.Boc D: lethal compound cotreated with modulator Boc D; for AUC, modulator BJ.CHX: lethal compound cotreated with modulator CHX; for AUC, modulator BJ.Co2+: lethal compound cotreated with modulator Co2+; for AUC, modulator BJ.DPQ: lethal compound cotreated with modulator DPQ; for AUC, modulator BJ.Gd3+: lethal compound cotreated with modulator Gd3+; for AUC, modulator BJ.LNAME: lethal compound cotreated with modulator LNAME; for AUC, modulator BJ.Lmin/NAD+: lethal compound cotreated with modulator Lmin/NAD+; for AUC, modulator BJ.Lmin: lethal compound cotreated with modulator Lmin; for AUC, modulator BJ.NAD+: lethal compound cotreated with modulator NAD+; for AUC, modulator BJ.NMMA: lethal compound cotreated with modulator NMMA; for AUC, modulator BJ.Nec-1: lethal compound cotreated with modulator Nec-1; for AUC, modulator BJ.Pepstatin: lethal compound cotreated with modulator Pepstatin; for AUC, modulator BJ.TLCK: lethal compound cotreated with modulator TLCK; on AUC, modulator BJ.3MA: reference of the scale not given here; on AUC, modulator BJ.ALLN: reference of the scale not given here; on AUC, modulator BJ.Boc D: reference of the scale not given here; on AUC, modulator BJ.CHX: reference of the scale not given here; on AUC, modulator BJ.Co2+: reference of the scale not given here; on AUC, modulator BJ.DPQ: reference of the scale not given here; on AUC, modulator BJ.Gd3+: reference of the scale not given here; on AUC, modulator BJ.LNAME: reference of the scale not given here; on AUC, modulator BJ.NAD+: reference of the scale not given here; on AUC, modulator BJ.NMMA: reference of the scale not given here; on AUC, modulator BJ.Nec-1: reference of the scale not given here; on AUC, modulator BJ.Pepstatin: reference of the scale not given here; on AUC, modulator BJ.TLCK: reference of the scale not given here
smiles,measurement,setting,value
COc1cccc(-n2nnnc2S(C)(=O)=O)c1 [CIL16],AUC HT.ATA,HT-1080,0.003965
same,AUC HT.ActD,HT-1080,0.01875
same,AUC HT.BHA,HT-1080,−0.05937
same,AUC HT.BHT,HT-1080,−0.1721
same,AUC HT.BocD,HT-1080,0.1414
same,AUC HT.CHX,HT-1080,0.08543
same,AUC HT.Co2+,HT-1080,0.155
same,AUC HT.CspA,HT-1080,0.008389
same,AUC HT.DPQ,HT-1080,−0.02205
same,AUC HT.EGTA,HT-1080,−0.0002723
same,AUC HT.Gd3+,HT-1080,−0.0407
same,AUC HT.LNAME,HT-1080,0.01974
same,AUC HT.Lmim,HT-1080,−0.05546
same,AUC HT.NAD+,HT-1080,0.05126
same,AUC HT.NMMA,HT-1080,−0.03154
same,HT.atoc (AUC),HT-1080,0.1025
same,HT.bCarotene (AUC),HT-1080,−0.01322
same,HT.deferox (AUC),HT-1080,0.05919
same,HT.digoxin (AUC),HT-1080,−0.01884
same,HT.trolox (AUC),HT-1080,−0.01524
same,HT.zVAD (AUC),HT-1080,0.005482
same,"AUC, modulator HT.3MA","HT-1080; HT-1080 cells, lethal compound cotreated with modulator 3MA, modulatory profile value (AUC)",0.02993
same,"AUC, modulator HT.ALLN","HT-1080; HT-1080 cells, lethal compound cotreated with modulator ALLN, modulatory profile value (AUC)",−0.03286
same,"AUC, modulator BJ.3MA",BJeLR,0.05064
same,"AUC, modulator BJ.ALLN",BJeLR,−0.03491
same,"AUC, modulator BJ.Boc D",BJeLR,−0.04692
same,"AUC, modulator BJ.CHX",BJeLR,0.01221
same,"AUC, modulator BJ.Co2+",BJeLR,0.07207
same,"AUC, modulator BJ.DPQ",BJeLR,−0.01732
same,"AUC, modulator BJ.Gd3+",BJeLR,−0.02506
same,"AUC, modulator BJ.LNAME",BJeLR,−0.01278
same,"AUC, modulator BJ.Lmin/NAD+",BJeLR,−0.05229
same,"AUC, modulator BJ.Lmin",BJeLR,−0.02238
same,"AUC, modulator BJ.NAD+",BJeLR,−0.02177
same,"AUC, modulator BJ.NMMA",BJeLR,−0.01938
same,"AUC, modulator BJ.Nec-1",BJeLR,0.06903
same,"AUC, modulator BJ.Pepstatin",BJeLR,0.02481
same,"AUC, modulator BJ.TLCK",BJeLR,−0.02516
same,"AUC, modulator BJ.atoc",BJeLR; lethal compound cotreated with modulator atoc,−0.03351
same,"AUC, modulator BJ.trolox",BJeLR; lethal compound cotreated with modulator trolox,0.003689
same,"AUC, modulator BJ.zVAD",BJeLR; lethal compound cotreated with modulator zVAD,−0.006166
CC(C)C1CC(CCNCc2ccc3c(c2)OCO3)(c2ccccc2)CCO1 (centres unmarked) [CIL51],AUC HT.ATA,HT-1080,0.003579
same,AUC HT.ActD,HT-1080,0.02697
same,AUC HT.BHA,HT-1080,−0.07965
same,AUC HT.BHT,HT-1080,−0.08488
same,AUC HT.BocD,HT-1080,−0.01458
same,AUC HT.CHX,HT-1080,0.08663
same,AUC HT.Co2+,HT-1080,0.03908
same,AUC HT.CspA,HT-1080,0.00675
same,AUC HT.DPQ,HT-1080,0.0109
same,AUC HT.EGTA,HT-1080,0.04897
same,AUC HT.Gd3+,HT-1080,0.003288
same,AUC HT.LNAME,HT-1080,0.01091
same,AUC HT.Lmim,HT-1080,0.01293
same,AUC HT.NAD+,HT-1080,0.04394
same,AUC HT.NMMA,HT-1080,0.01562
same,HT.atoc (AUC),HT-1080,0.05135
same,HT.bCarotene (AUC),HT-1080,0.03796
same,HT.deferox (AUC),HT-1080,0.004062
same,HT.digoxin (AUC),HT-1080,−0.03821
same,HT.trolox (AUC),HT-1080,−0.01257
same,HT.zVAD (AUC),HT-1080,0.007799
same,"AUC, modulator BJ.3MA",BJeLR,0.05908
same,"AUC, modulator BJ.ALLN",BJeLR,−0.2032
same,"AUC, modulator BJ.Boc D",BJeLR,−0.0008828
same,"AUC, modulator BJ.CHX",BJeLR,0.1696
same,"AUC, modulator BJ.Co2+",BJeLR,0.06399
same,"AUC, modulator BJ.DPQ",BJeLR,0.04077
same,"AUC, modulator BJ.Gd3+",BJeLR,0.03263
same,"AUC, modulator BJ.LNAME",BJeLR,−0.04145
same,"AUC, modulator BJ.Lmin/NAD+",BJeLR,0.03468
same,"AUC, modulator BJ.Lmin",BJeLR,−0.07413
same,"AUC, modulator BJ.NAD+",BJeLR,−0.01737
same,"AUC, modulator BJ.NMMA",BJeLR,0.003016
same,"AUC, modulator BJ.Nec-1",BJeLR,0.03451
same,"AUC, modulator BJ.Pepstatin",BJeLR,−0.06742
same,"AUC, modulator BJ.TLCK",BJeLR,−0.04421
